# Patent US20090325913A1, “Treatment of pain using satraplatin” (priority 2006, published 2009)
# How the values were obtained:
# [1] = test system: prostate cancer cell lines PC-3, DU 145 and LNCaP; conditions: cited from earlier work
# [2] = test system: patients with metastatic prostatic carcinoma; conditions: single agent; cited from earlier work
# [3] = test system: human tumor cell lines with different sensitivities to cisplatin; conditions: at equimolar basis; cited from earlier work
# human lung cancer cells = conditions: cited from earlier work
# [4] = test system: CYP enzymes (cytochrome P450 system); experiment: Inhibition of CYP enzymes; type: in vitro ADME
# Description: This may result in increased toxicity of certain drugs (see Appendix 5). Patients will be monitored closely for drug interactions or adverse reactions to concomitant medications. Investigators are cautioned to adjust concomitant medication dosages appropriately.
# [5] = test system: mismatch repair-proficient and mismatch repair-deficient cell lines; conditions: cited from earlier work
SMILES,effect of treatment on prostate cancer cells [1],efficacy [2],levels of platinum-DNA adducts compared to cisplatin [3],effect on radiation response (human lung cancer cells),inhibition of CYP enzymes [4],difference in sensitivity between mismatch repair-proficient and -deficient cell lines [5],sensitivity of androgen-insensitive PC-3 and DU 145 vs androgen-sensitive LNCaP [1]
"N.NC1CCCCC1.[Cl-].[Cl-].[Pt+2] [JM118, reference compound]",tumor cell kill,,,,,,
N.N.[Cl][Pt][Cl] [cisplatin],,not effective,,,,,
"CC(=O)[O][Pt]([NH2])([Cl])([Cl])([NH]C1CCCCC1)[O]C(C)=O [satraplatin, bis(acetato)ammine dichloro(cyclohexylamine)platinum (IV)]",tumor cell kill,,lower levels of platinum-DNA adducts,can potentiate the effects of radiation,strong inhibitor,no difference in sensitivity,more sensitive
